Measured values published in PubChem BioAssay AID248 (DTP/NCI, 2004).
“And” between values parts separate entries of the source, which are not always exact repeats. Equal values may be shown once. Inconclusive results and toxic doses are left out. Cut-off read from the data, not from the text of the source: active = T/C of 150% or more; inactive = T/C below 125%.

System: L1210 leukemia ip in BDF1 mice, survival T/C
Assay: NCI In Vivo Anticancer Drug Screen. Data for tumor model L1210 Leukemia (intraperitoneal) in B6D2F1 (BDF1) mice
Settings: endpoint: mean survival time, higher = longer survival
Outline: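 In this screen, tumor-bearing mice given compound are compared to those given vehicle, and their survival values are reported as a treated-to-control quotient.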

[1] = dose: 100.0 mg/kg/injection, schedule: Q01DX001 (ip), vehicle: saline
[2] = dose: 100.0 mg/kg/injection, schedule: Q01DX009 (ip), vehicle: saline
[3] = dose: 200.0 mg/kg/injection, schedule: Q01DX001 (ip), vehicle: saline
[4] = dose: 200.0 mg/kg/injection, schedule: Q01DX009 (ip), vehicle: saline
[5] = dose: 400.0 mg/kg/injection, schedule: Q01DX001 (ip), vehicle: saline
[6] = dose: 400.0 mg/kg/injection, schedule: Q01DX009 (ip), vehicle: saline
[7] = dose: 100.0 mg/kg/injection, schedule: Q04DX002 (ip), vehicle: Klucel (hydroxypropylcellulose) (HPC)
[8] = dose: 100.0 mg/kg/injection, schedule: Q01DX009 (ip), vehicle: saline with Tween-80
[9] = dose: 200.0 mg/kg/injection, schedule: Q01DX009 (ip), vehicle: saline with Tween-80
[10] = dose: 400.0 mg/kg/injection, schedule: Q01DX009 (ip), vehicle: saline with Tween-80
[11] = dose: 100.0 mg/kg/injection, schedule: Q01DX001 (ip), vehicle: Klucel (hydroxypropylcellulose) (HPC)
[12] = dose: 100.0 mg/kg/injection, schedule: Q04DX003 (ip), vehicle: Klucel (hydroxypropylcellulose) (HPC)
[13] = dose: 200.0 mg/kg/injection, schedule: Q01DX001 (ip), vehicle: Klucel (hydroxypropylcellulose) (HPC)
[14] = dose: 200.0 mg/kg/injection, schedule: Q04DX003 (ip), vehicle: Klucel (hydroxypropylcellulose) (HPC)
[15] = dose: 100.0 mg/kg/injection, schedule: Q01DX001 (ip), vehicle: carboxymethylcellulose (CMC)
[16] = dose: 200.0 mg/kg/injection, schedule: Q01DX001 (ip), vehicle: carboxymethylcellulose (CMC)
[17] = dose: 400.0 mg/kg/injection, schedule: Q01DX001 (ip), vehicle: carboxymethylcellulose (CMC)
[18] = dose: 100.0 mg/kg/injection, schedule: Q04DX003 (ip), vehicle: saline
[19] = dose: 200.0 mg/kg/injection, schedule: Q04DX003 (ip), vehicle: saline
[20] = dose: 400.0 mg/kg/injection, schedule: Q04DX003 (ip), vehicle: saline
[21] = dose: 100.0 mg/kg/injection, schedule: Q04DX003 (ip), vehicle: saline with Tween-80
[22] = dose: 200.0 mg/kg/injection, schedule: Q04DX003 (ip), vehicle: saline with Tween-80
[23] = dose: 400.0 mg/kg/injection, schedule: Q04DX003 (ip), vehicle: saline with Tween-80

Measured: T/C

O=S(O)O
inactive: [1] 95 % of control | [2] 103 % of control | [3] 97 % of control | [4] 97 % of control | [5] 103 % of control | [6] 100 % of control

C/C=C/N1CCN(/C=C/C)C1=O
inactive: dose: 25.0 mg/kg/injection, schedule: Q04DX002 (ip), vehicle: Klucel (hydroxypropylcellulose) (HPC) 96 % of control | dose: 50.0 mg/kg/injection, schedule: Q04DX002 (ip), vehicle: Klucel (hydroxypropylcellulose) (HPC) 102 % of control | [7] 90 % of control

c1coc(CNc2ncnc3nc[nH]c23)c1
inactive: dose: 75.0 mg/kg/injection, schedule: Q01DX001 (ip), vehicle: other 92 % of control | dose: 75.0 mg/kg/injection, schedule: Q01DX009 (ip), vehicle: Klucel (hydroxypropylcellulose) (HPC) 103 % of control | dose: 150.0 mg/kg/injection, schedule: Q01DX001 (ip), vehicle: other 98 % of control | dose: 150.0 mg/kg/injection, schedule: Q01DX009 (ip), vehicle: Klucel (hydroxypropylcellulose) (HPC) 97 % of control | dose: 300.0 mg/kg/injection, schedule: Q01DX001 (ip), vehicle: other 97 % of control | dose: 300.0 mg/kg/injection, schedule: Q01DX009 (ip), vehicle: Klucel (hydroxypropylcellulose) (HPC) 106 % of control

Cc1ccc(S(=O)(=O)Nc2ccc(I)c(Cl)c2Cl)cc1
inactive: [8] 101 % of control | [9] 104 % of control | [10] 110 % of control

CN(C)CCCN=NNc1nc[nH]c1C(N)=O
inactive: [11] 95 % of control | [12] 108 % of control | [13] 91 % of control | [14] 92 % of control | dose: 400.0 mg/kg/injection, schedule: Q01DX001 (ip), vehicle: Klucel (hydroxypropylcellulose) (HPC) 95 % of control

O=S(c1ccc(Cl)cc1)N(OCc1ccccc1)S(=O)c1ccc(Cl)cc1 (stereo not given)
inactive: dose: 50.0 mg/kg/injection, schedule: Q01DX001 (ip), vehicle: Klucel (hydroxypropylcellulose) (HPC) 107 % of control | [11] 100 % of control | [13] 100 % of control

CC(CN1CCN(CCOCCO)CC1)CN1c2ccccc2Sc2ccccc21 (stereo not given)
inactive: dose: 3.12 mg/kg/injection, schedule: Q01DX009 (ip), vehicle: saline 103 % of control | dose: 6.25 mg/kg/injection, schedule: Q01DX009 (ip), vehicle: saline 97 % of control | dose: 12.5 mg/kg/injection, schedule: Q01DX009 (ip), vehicle: saline 108 % of control | dose: 25.0 mg/kg/injection, schedule: Q01DX009 (ip), vehicle: saline 113 % of control | dose: 25.0 mg/kg/injection, schedule: Q04DX003 (ip), vehicle: saline 96 % of control | dose: 50.0 mg/kg/injection, schedule: Q04DX003 (ip), vehicle: saline 102 % of control

Fc1ccc(NC(=S)N/N=C\c2ccc(Cl)cc2Cl)cc1
inactive: dose: 60.0 mg/kg/injection, schedule: Q01DX Z (oral), vehicle: methylcellulose (MC) 103 % of control | dose: 120.0 mg/kg/injection, schedule: Q01DX Z (oral), vehicle: methylcellulose (MC) 89 % of control | dose: 240.0 mg/kg/injection, schedule: Q01DX Z (ip), vehicle: methylcellulose (MC) 89 % of control | dose: 240.0 mg/kg/injection, schedule: Q01DX Z (oral), vehicle: methylcellulose (MC) 93 % of control | dose: 480.0 mg/kg/injection, schedule: Q01DX Z (oral), vehicle: methylcellulose (MC) 95 % of control

O=C(Cc1ccccn1)NCC(O)c1ccccc1 (stereo not given)
inactive: [1] 110 % of control | [3] 91 % of control | [5] 93 % of control

CC(C)=NNC(=O)CNc1cccc(C(F)(F)F)c1
inactive: [7] 107 % of control | dose: 200.0 mg/kg/injection, schedule: Q04DX002 (ip), vehicle: Klucel (hydroxypropylcellulose) (HPC) 110 % of control | dose: 400.0 mg/kg/injection, schedule: Q04DX002 (ip), vehicle: Klucel (hydroxypropylcellulose) (HPC) 100 % of control

COc1ccc(Br)cc1CC=O
inactive: [15] 103 % of control | dose: 177.6 mg/kg/injection, schedule: Q01DX001 (ip), vehicle: carboxymethylcellulose (CMC) 95 % of control and 105 % of control | [16] 103 % of control | dose: 266.8 mg/kg/injection, schedule: Q01DX001 (ip), vehicle: carboxymethylcellulose (CMC) 97 % of control and 103 % of control | [17] 95 % of control and 103 % of control | dose: 600.0 mg/kg/injection, schedule: Q01DX001 (ip), vehicle: carboxymethylcellulose (CMC) 97 % of control and 103 % of control

CCCCCCCc1cc(=O)n(-c2ccc([N+](=O)[O-])cc2)n1C
inactive: [12] 92 % of control | [14] 91 % of control | dose: 400.0 mg/kg/injection, schedule: Q04DX003 (ip), vehicle: Klucel (hydroxypropylcellulose) (HPC) 94 % of control

COc1cc([N+](=O)[O-])ccc1NC(=O)Oc1ccc(NC(C)=O)cc1
inactive: dose: 100.0 mg/kg/injection, schedule: Q01DX009 (ip), vehicle: Klucel (hydroxypropylcellulose) (HPC) 101 % of control | dose: 200.0 mg/kg/injection, schedule: Q01DX009 (ip), vehicle: Klucel (hydroxypropylcellulose) (HPC) 106 % of control | dose: 400.0 mg/kg/injection, schedule: Q01DX009 (ip), vehicle: Klucel (hydroxypropylcellulose) (HPC) 91 % of control

O=C(NCCCN1CC1)C(=O)Nc1ccccc1
inactive: dose: 12.5 mg/kg/injection, schedule: Q04DX003 (ip), vehicle: Klucel (hydroxypropylcellulose) (HPC) 92 % of control | dose: 25.0 mg/kg/injection, schedule: Q04DX003 (ip), vehicle: Klucel (hydroxypropylcellulose) (HPC) 101 % of control

CCOC(=O)C(CC1OCCO1)C1=NC(C)(C)CC(C)O1 (stereo not given)
inactive: [2] 96 % of control | [18] 106 % of control | [4] 100 % of control | [19] 92 % of control | [6] 96 % of control | [20] 92 % of control

CC(=O)c1nnn(-c2ccccc2)n1
inactive: dose: 100.0 mg/kg/injection, schedule: Q01DX001 (ip), vehicle: other 95 % of control and 109 % of control | dose: 200.0 mg/kg/injection, schedule: Q01DX001 (ip), vehicle: other 95 % of control and 101 % of control | dose: 400.0 mg/kg/injection, schedule: Q01DX001 (ip), vehicle: other 101 % of control

S=C(Nc1ccccc1)Nc1ncn[nH]1
inactive: dose: 75.0 mg/kg/injection, schedule: Q01DX001 (ip), vehicle: carboxymethylcellulose (CMC) 95 % of control | dose: 150.0 mg/kg/injection, schedule: Q01DX001 (ip), vehicle: carboxymethylcellulose (CMC) 98 % of control | dose: 300.0 mg/kg/injection, schedule: Q01DX001 (ip), vehicle: carboxymethylcellulose (CMC) 88 % of control

CSc1nnc2c3ccccc3ccn12
inactive: [15] 104 % of control | [16] 96 % of control | [17] 93 % of control

COc1ccc(OC)c2c(C(O)CNC34CC5CC(CC(C5)C3)C4)cc(-c3ccc(Cl)cc3)nc12 (stereo not given)
inactive: [18] 97 % of control | [19] 92 % of control | [20] 92 % of control

CCO/C=N/N(C)c1n[n+]([O-])ccc1C
inactive: dose: 100.0 mg/kg/injection, schedule: Q04DX002 (ip), vehicle: saline 110 % of control | dose: 200.0 mg/kg/injection, schedule: Q04DX002 (ip), vehicle: saline 104 % of control | dose: 400.0 mg/kg/injection, schedule: Q04DX002 (ip), vehicle: saline 101 % of control

Nn1c(Cc2ccccc2)nnc1Cc1ccccc1
inactive: dose: 100.0 mg/kg/injection, schedule: Q04DX002 (ip), vehicle: saline with Tween-80 104 % of control | dose: 200.0 mg/kg/injection, schedule: Q04DX002 (ip), vehicle: saline with Tween-80 87 % of control | dose: 400.0 mg/kg/injection, schedule: Q04DX002 (ip), vehicle: saline with Tween-80 108 % of control

COc1ccc(NC(=O)Nc2cc(Cl)ccc2Cl)cc1
inactive: [21] 90 % of control | [22] 92 % of control | [23] 92 % of control

NC(=O)CC(NC(=O)OCc1ccccc1)c1nn[nH]n1 (stereo not given)
inactive: [8] 104 % of control | [21] 91 % of control | [9] 106 % of control | [22] 102 % of control | [10] 98 % of control | [23] 91 % of control
